Patent US20230181727A1, “COMPOSITION OF NANOPARTICLES” (priority 2020, published 2023)

Columns and labels:
[1] = Solubility enhancement of epitopes (solubility in water); assay type: physicochemical
Description: On the N-terminal site of the enzymatically cleaved linker the addition of polar amino acids can be used to enhance the solubility of the whole peptide. […] The use in a human vaccine is difficult. In animal studies researchers dissolve it in DMSO. The solubility after e.g. subcutaneous injection is questionable: dilution might result in precipitation of large peptide particles, which is very unfavorable for transport to lymphnodes.
According to the invention the epitope […] was enlarged on the N-terminal site with the enzymatic cleavable linker Val-Cit and the cationic solubilizing sequence Lys-Lys-Lys, leading to […]

[2] = system: DC2.4 cells; assay: MHC I cross presentation of OVA 257-264 in DC2.4 cells; assay type: cell-based, murine; settings: 5 μM, 6 h incubation, 25-D1.16 antibody, flow cytometry
Method: In the experiment, the OVA257-264 presentation efficacy after incubation of 5.10^4 DC2.4 cells with 5 μM solutions of full length protein (OVA=Ovalbumin), N— and C-terminal elongated epitope (OVA247-264A5K, a so called synthetic long peptide (SLP)), N-terminal elongated epitope with a Cathepsin B cleavable sequence (exemplary shown RW-Cit-OVA257-264) or native epitope (OVA257-264), each with and without nanoparticles, was compared. […] After an incubation time of 6 h, the test substances are removed by washing with phosphate-buffered saline (PBS). In the next step, the cells were incubated with CD1 6/CD32 antibody in order to block the non-specific binding of the detection antibody to the Fc (Fragment, crystallizable) receptor of the cells. After incubation with 25-D1.16 antibody, the amount of cross-presented OVA257-264 was quantified by flow cytometry.
FIG. 16: OVA257-264 MHC I expression after 6 h incubation of H2-Kb positive cells with 5 μM solution of native or elongated OVA257-264 epitope or full length OVA protein with or without SiO2—PO3H2. Quantification was carried out by flow cytometry after labeling with 25-D1.16 detection antibody.

| Molecule | solubility in water [1] | OVA257-264 MHC I expression [2] |
| --- | --- | --- |
| CC[C@H](C)[C@H](NC(=O)CNC(=O)[C@H](CC(C)C)NC(=O)[C@@H](NC(=O)CNC(=O)[C@H](CCSC)NC(=O)[C@H](CC(C)C)NC(=O)[C@H](CC(C)C)NC(=O)[C@H](CCCNC(N)=O)NC(=O)[C@@H](NC(=O)[C@H](CCCCN)NC(=O)[C@H](CCCCN)NC(=O)[C@@H](N)CCCCN)C(C)C)[C@@H](C)O)C(=O)N[C@H](C(=O)O)C(C)C | excellent solubility in water |  |
| CC[C@H](C)[C@H](NC(=O)CNC(=O)[C@H](CC(C)C)NC(=O)[C@@H](NC(=O)CNC(=O)[C@H](CCSC)NC(=O)[C@H](CC(C)C)NC(=O)[C@@H](N)CC(C)C)[C@@H](C)O)C(=O)N[C@H](C(=O)O)C(C)C | very bad solubility in water |  |
| SIINFEKL [OVA257-264] |  | presented in significant amounts |
